Patent US4631289A, “Useful in radiotherapy of chemotherapy 4-aziridino-1-nitroimidazol-1-yl-2,3-butanediols” (National Research Development Corporation, priority 1982, dated 1986)
Like-named read-outs stand apart in the source and are kept apart here.

Key:
[1] = Toxicity, LD50, i.p. in female WHT mice; conditions: mouse, in vivo, ip
Source text: (§1) ^b Drugs administered i.p. to .female. WHT mice.

[2] = tested on: irradiated hypoxic V79 mammalian cells; experiment: Sensitisation: concentration for enhancement ratio of 1.6 in irradiated hypoxic V79 cells; assay type: cell-based; conditions: Cricetulus griseus, read-out: C1.6 (concentration required to achieve an enhancement ratio of 1.6)
Source text: ^a Concentration required to achieve an enhancement ratio of 1.6 in
irradiated hypoxic V79 mammalian cells.

MT tumour [3] = experiment: Chemosensitization (melphalan): enhancement of melphalan treatment in WHT mice bearing MT tumour (Example 3); assay type: in vivo; conditions: i.p. before melphalan
Description: (§2) In the following Examples, WHT mice in which the MT tumour has been implanted subcutaneously are administered the compound of Example 1 intraperitoneally before treatment with radiation or with the chemotherapeutic agent melphalan. The time before such treatment at which the drug is administered is such that maximum enhancement is effected. The results of treatment with radiation and the chemotherapeutic drug are set out respectively in Tables I and II together with comparison results using misonidazole (MISO) and the compound Ro-03-8799. The asterisks against the results from treatment with the latter compounds indicate that the tumours treated in these cases are intramuscular.

MT tumour [4] = experiment: Radiosensitization: enhancement of radiation treatment in WHT mice bearing MT tumour (Example 2); assay type: in vivo; conditions: administered dose 3.8 mmoles/kg, intraperitoneal, before radiation; tumour implanted subcutaneously
Description: as §2

[5] = Toxicity, LD50, i.p. in male CRCD1 mice; conditions: mouse, in vivo, ip, male CRCD1 mice (footnote c)
Source text: as §1
^c For Compound of Example 1 in .male. CRCD1 mice

[6] = administered dose 0.72 mmoles/kg, * tumours intramuscular

Compound | LD50 [1] [µmol/kg] | EC (enhancement ratio 1.6) ([2]; V79, light or radiation study) [µM] | also measured
CC(C)C1CN1CC(O)Cn1ccnc1[N+](=O)[O-] (stereo not shown) [Example 9, 1-(2-Nitro-1-imidazolyl)-3-(2-isopropyl-1-aziridino)-2-propanol] | ≤ 1180 | 130 | 
Cc1ncc([N+](=O)[O-])n1CC(O)CN1CC1 (stereo not shown) [Example 11, 1-(2-methyl-5-nitro-1-imidazolyl)-3-(1-aziridino or substitutedaziridino)-2-propanol] | 800 | 300 | 
O=[N+]([O-])c1nccn1CC(O)CN1CCCCC1 (stereo not shown) [Example 8799] |  |  | Enhancement ratio (Chemosensitization, melphalan) (MT tumour [3]; [6]): 2.2; Enhancement ratio (Chemosensitization, melphalan) (MT tumour [3]; administered dose 0.72 mmoles/kg, tumour implanted subcutaneously): 1.9; Enhancement ratio (Radiosensitization) (MT tumour [4]): 1.3
O=[N+]([O-])c1nccn1CC(O)C(O)CN1CC1 (stereo not shown) [Example 10, 1-(2-Nitro-1-imidazolyl)-4-(1-aziridino) or substituted aziridino)-2,3-butane-diol] | 410 | 130 | 
O=[N+]([O-])c1nccn1CC(O)CN1CC1 (stereo not shown) [Example 1, 1-(2-Nitro-1-imidazolyl)-3-(1-aziridino)-2-propanol] |  |  | Enhancement ratio (Chemosensitization, melphalan) (MT tumour [3]; administered dose 0.08 mmoles/kg, tumour implanted subcutaneously): 3.0; LD50 [5]: 610 µmol/kg; Enhancement ratio (Radiosensitization) (MT tumour [4]): 1.7; EC (enhancement ratio 1.6) ([2]; light or radiation study, irradiated hypoxic V79 mammalian cells): 100 µM
O=[N+]([O-])c1nccn1CC(O)CN1CC1c1ccccc1 (stereo not shown) [Example 8, 1-(2-Nitro-1-imidazolyl)-3-(2-phenyl-1-aziridino)-2-propanol] |  | 300 | 
CC1CN1CC(O)Cn1ccnc1[N+](=O)[O-] (stereo not shown) [Example 4, 1-(2-Nitro-1-imidazolyl)-3-(2-methyl-1-aziridino)-2-propanol] | < 580 | 80 | 
C[C@@H]1[C@@H](C)N1CC(O)Cn1ccnc1[N+](=O)[O-] (relative stereo) [Example 14, 1-(2-Nitro-1-imidazolyl)-3-(2,3-dimethyl-1-aziridino)-2-propanol] |  | 80 | 
CC1(C)CN1CC(O)Cn1ccnc1[N+](=O)[O-] (stereo not shown) [Example 7, 1-(2-Nitro-1-imidazolyl)-3-(2,2-dimethyl-1-aziridino)-2-propanol] | 1250 | 80 | 
CCC1CN1CC(O)Cn1ccnc1[N+](=O)[O-] (stereo not shown) [Example 5, 1-(2-Nitro-1-imidazolyl)-3-(2-ethyl-1-aziridino)-2-propanol] | 580 | 130 | 
C[C@@H]1[C@H](C)N1CC(O)Cn1ccnc1[N+](=O)[O-] (relative stereo) [Example 13, 1-(2-Nitro-1-imidazolyl)-3-(2,3-dimethyl-1-aziridino)-2-propanol] | ≤ 1250 | 80 | 
COCC(O)Cn1ccnc1[N+](=O)[O-] (stereo not shown) [MISO, misonidazole] |  |  | Enhancement ratio (Chemosensitization, melphalan) (MT tumour [3]; [6]): 1.7; Enhancement ratio (Radiosensitization) (MT tumour [4]): 1.3
